Key:
[1] = system: GBM cells (U251); assay: Mitochondrial morphology (TEM, MitoTracker Red); assay type: cell-based, human; conditions: inhibitor 24 hours
Method: (A, B) Transmission electron microscopy (TEM) analysis of the mitochondrial morphology in GBM cells (U251) treated with the DGAT1 inhibitor A-922500 (20 μg/ml) or DGAT2 inhibitor PF-06424439 (20 μg/ml) for 24 hr and shown in a or infected with shRNA-expressing lentivirus against DGAT1 for 48 hr and shown in b. Scale bar, 500 nm. Mitochondria are indicated by red arrows. Mitochondria length and loss of cristae (%) were quantified by ImageJ over 100 mitochondria in each group (mean±SEM). Statistical significance was determined by one-way ANOVA. * P<0.0001. (C, D) Representative fluorescence images of LDs (green) and mitochondria (red) in U251 cells treated with DGAT1 or DGAT2 inhibitor and shown in c or shRNA in (D) as in panels (A, B). […] The percentage of cells with tubular or fragmented mitochondria was quantified by ImageJ in more than 100 cells (mean±SEM). Statistical significance was determined by one-way ANOVA. * P<0.001. […] Lower panels show the quantification of relative basal and maximal OCR change (details please see Methods). […] Basal OCR was determined as OCR before oligomycin subtract OCR after rotenone addition, and maximal OCR was determined as OCR after FCCP subtract OCR after rotenone addition. Statistical significance was determined by one-way ANOVA. * P<0.0001. […] ROS were detected with CellROX Deep Red, and mitochondria were stained with MitoTracker Green. […]

[2] = system: GBM30-derived subcutaneous model; assay: GBM30 subcutaneous xenograft model; assay type: in vivo, mice; conditions: 120 mg/kg/day
Method: (A-C) The effects of the DGAT1 inhibitor […] (120 mg/kg/day, oral gavage, details in Methods) in U87/EGFRvIII cells (1×10^6 cells/mouse)- or GBM30-derived subcutaneous models (4×10^6 cells/mouse), as shown by tumor growth rate in A and final isolated tumor images and weights in B. Tumor tissues were analyzed for LD presence by IF (TIP47 staining) and CPT1A and cleaved Caspase 3 levels by IHC in C. LD numbers and protein levels in tumor tissues were quantified by ImageJ and averaged from 5 separate areas in each tumor. The results for protein levels were normalized to control tumors (mean±SEM). Statistical significance was determined by one-way ANOVA. * P<0.01 for comparison with control group. Scale bars, m for IF, 40 m for IHC.
It was next examined whether pharmacological inhibition of DGAT1 is effective in inhibiting GBM growth using U87/EGFRvIII and GBM30 xenograft models. Tumor cells were implanted in mice flanks and started treatment with DGAT1 inhibitor A-922500 (120 mg/kg/day) when tumor reached approximately 80 mm3.
Intracranial xenograft models were generated using female athymic nude (NCr-nu/nu) mice (6-8 weeks of age obtained from OSU Target Validation Shared Resource). U87EGFRvIII (1×10^6) cells infected with shDGAT1-, shDGAT2- or scramble shRNA-expressing lentivirus for 48 hr (suspended in 100 μl PBS) were implanted into mice flank to generate subcutaneous model. For intracranial xenograft model, U87EGFRvIII-luc (1×10^5) or GBM30-luc (1×10^5) cells infected with shDGAT1-, shDGAT2- or scramble shRNA-expressing lentivirus for 48 hours (suspended in 5 μl PBS) were implanted into mouse brains. Mice were observed until they became moribund, at which point they were sacrificed. For drug treatment, U87EGFRvIII (1×10^6 cells suspended in 100 μl PBS) or GBM30 cells (4×10^6 suspended in 100 μl PBS and then mixed with 100 μl matrigel) were implanted in mouse flanks. DGAT1 inhibitor A-922500 (120 mg/kg/day, oral gavage) was formulated by 1% Tween 80 in PBS and administrated to mice when tumor size reached approximately 80 mm^3.

## O=C(Nc1ccccc1)Nc1ccc(-c2ccc(C(=O)[C@@H]3CCC[C@H]3C(=O)O)cc2)cc1 [A-922500]
[1]
  structure of mitochondria: severely disrupted
[2]
  CPT1A expression in tumor tissues: significantly increased CPT1A expression
  LD formation in tumor tissues (TIP47): dramatically suppressed LD formation
  cleaved caspase 3 levels in tumor tissues: markedly elevated cleaved caspase 3 levels
[2]; oral gavage
  tumor growth: significantly suppressed tumor growth
  tumor weight: dramatic reduction in tumor weight
[2]; oral gavage, listed as A-900225
  tumor growth: dramatically suppresses GBM tumor growth
